From patent US6359156B1, “Oxime amides and hydrazone amides having fungicidal activity” (Monsanto Technology LLC, priority 1999, dated 2002)
Like-named read-outs stand apart in the source and are kept apart here.

Tests used:
Ggt [1] = test: In vitro assay: inhibition of mycelial growth of Ggt on minimal media agar; format: cell-based, Gaeumannomyces graminis var. tritici; conditions: Gaeumannomyces graminis, read-out: % Control of Ggt In Vitro
Description: The test compounds (0.25 mL of an appropriate stock solution in acetone) were incorporated into 25 mL minimal media agar [prepared by autoclaving a solution of 17.5 g Czapek Dox broth (Difco), 7.5 g purified agar or Bacto-agar (Difco), and 500 mL distilled/deionized water, and then adding 50 μL of 1 mg/mL thiamine hydrochloride and 50 μL of 1 mg/mL biotin in 5% ethanol] and plates were prepared.
Each plate was inoculated by placing in a triangular shape three 4 mm plugs of Ggt grown on the minimal media agar described above. The plates were incubated in the dark at 19-20° C. for 4-5 days. The growth of the fungus was measured as the diameter of the mycelial growth and the result expressed as Percent Inhibition, calculated as [1−[(mm growth on treated plate−4)/(mm growth on control plate−4)]]×100.

Ggt [2] = test: 4 Week In Vivo Seed Treatment Assay on "Bergen" wheat in soil infested with Ggt; design: species or system Gaeumannomyces graminis var. tritici
Description: The test compounds were tested for control of Ggt on “Bergen” varieties of wheat grown in 3 inch square pots containing soil (equal to thirds of Metro-mix, sand, and silt-loam filed soil, all steam sterilized). Seeds were treated with a solution of a test compound in acetone. Using a 10,000 ppm stock for each compound, the following serial dilutions were prepared.
When 1 mL of the stock and dilutions was applied to 10 gm of seed, the resultant application rates were 100 and 25 g of active ingredient per 100 kg of seed.
A treatment jar was rinsed 2 times with 3 mL of acetone. The 1 mL of the solution was swirled to cover the base of the jar. 10 gm of seed was added to the jar and capped, after which the jar was swirled and shaken until the seeds got a rapid and even coverage. After about 30-50 seconds, the lid was removed while the shaking was continued. After 1 minute, the jar was set aside to dry. When dry, the seed was poured into an envelope for storage until planting.
Compounds were tested for control of Ggt on “Bergen” varieties of wheat grown in 3 inch square pots containing soil infested with Ggt. The infestation was accomplished by mixing the soil with an inoculum prepared by growing Ggt on infested sterile oats (400 cc whole oats, 350 mL deionized water, autoclaved). After a one month incubation period at room temperature, the oats were dried and mixed with the soil at 4% v/v.
The roots were harvested, washed, and rated after 4 weeks. Each treatment was assigned a percent (%) diseased root area value using 1, 5, 10, 20, 30, 40, 50, 60, 80, or 100% ratings. Each pot of plants got a single rating.

[3] = 0.1 ppm in agar, 4-5 days at 19-20° C.
[4] = 1 ppm in agar, 4-5 days at 19-20° C.
[5] = 10 ppm in agar, 4-5 days at 19-20° C.
[6] = 0.01 ppm in agar, 4-5 days at 19-20° C.
[7] = 25 g ai/100 kg seed, roots rated after 4 weeks
[8] = 100 g ai/100 kg seed, roots rated after 4 weeks

| SMILES | inhibition of growth at 0.1 ppm (Ggt [1]; [3]) [%] | inhibition of growth at 1 ppm (Ggt [1]; [4]) [%] | inhibition of growth at 10 ppm (Ggt [1]; [5]) [%] | also measured |
| --- | --- | --- | --- | --- |
| CCCNC(=O)/C(=N/OC(C)(C)C)c1ccccc1 [Example 2] | 27 | 0 | 0 |  |
| CCCNC(=O)/C(=N/OC(C)(C)C)c1cccs1 [Example 15] | 10 | 20 | 94 |  |
| CCCNC(=O)C(=NOC(C)(C)C)c1ccc(C)cc1 [Example 9] | 7 | 37 | 80 |  |
| CCCNC(=O)C(=NOC(C)(C)C)c1cccc(C)c1 [Example 10] | 5 | 32 | 80 |  |
| CCCNC(=O)/C(=N\OC(C)(CC)CC)c1ccccc1 [Example 7] | 98 | 100 | 100 | inhibition of growth at 0.01 ppm (Ggt [1]; [6]): 16% |
| CCCNC(=O)C(=NOC(C)(C)C)c1ccccc1F [Example 11] | 0 | 43 | 77 |  |
| CCCNC(=O)C(=NOC(C)(C)C)c1ccco1 [Example 16] | 24 | 51 | 92 |  |
| CCCNC(=O)/C(=N\OC(C)(C)C)c1ccccc1 [Example 1] | 96 | 100 | 100 | inhibition of growth at 0.01 ppm (Ggt [1]; [6]): 4%; % Control of Ggt In Vivo (Ggt [2]; [7]): 71%; % Control of Ggt In Vivo (Ggt [2]; [8]): 79% |
| CCCNC(=O)/C(=N\NC(C)(C)C)c1ccccc1 [Example 3] | 19 | 89 | 97 | % Control of Ggt In Vivo (Ggt [2]; [7]): 21%; % Control of Ggt In Vivo (Ggt [2]; [8]): 0% |
| CCCNC(=O)/C(=N/NC(C)(C)C)c1ccccc1 [Example 4] | 0 | 0 | 43 |  |
| CCCNC(=O)/C(=N/OC(C)(C)CC)c1ccccc1 [Example 6] | 2 | 2 | 20 |  |
| C=CCNC(=O)c1c([Si](C)(C)C)sc(C)c1C [Standard, reference compound] |  |  |  | inhibition of growth at 0.01 ppm (Ggt [1]): 100%; inhibition of growth at 0.1 ppm (Ggt [1]): 100%; inhibition of growth at 1 ppm (Ggt [1]): 100%; inhibition of growth at 10 ppm (Ggt [1]): 100%; % Control of Ggt In Vivo (Ggt [2]; 25, roots rated after 4 weeks): 90%; % Control of Ggt In Vivo (Ggt [2]; 100, roots rated after 4 weeks): 93% |
| CCCNC(=O)/C(=N\OC(C)(C)C)c1cccs1 [Example 14] | 96 | 100 | 100 |  |
| CCCNC(=O)/C(=N\OC(C)(C)CC)c1ccccc1 [Example 5] | 100 | 100 | 100 | inhibition of growth at 0.01 ppm (Ggt [1]; [6]): 59% |
| CCCNC(=O)/C(=N/OC(C)(CC)CC)c1ccccc1 [Example 8] | 2 | 80 | 98 |  |
| C=CCNC(=O)C(=NNC(C)(C)C)c1ccccc1 [Example 13] | 25 | 96 | 96 |  |
| C=CCNC(=O)C(=NOC(C)(C)C)c1ccccc1 [Example 12] | 67 | 98 | 100 |  |
